Laboratory results from patent publication US20260327317A1, “PROTEASE-CLEAVABLE MOIETIES AND METHODS OF USE THEREOF” (CytomX Therapeutics, Inc., priority 2022, published 2026).
Entries after “also recorded” stand apart in the source; their conditions may differ.

How the values were obtained:
[1] = tested on: head and neck tumor B; assay: Quantitative zymography (QZ) assay, patient-derived tumor sample; design: species or system human (patient-derived); conditions: 20 μg/mL, 37° C, 48 hours
Protocol: (§1) Protease activities in patient-derived tumor samples were evaluated using the quantitative zymography (QZ) assay. […] Tumor tissue samples from two head and neck cancer patients and one triple negative breast cancer (TNBC) patient were analyzed utilizing activatable antibodies of the present disclosure with the CM 6006 (SEQ ID NO: 7).
(§2) The protease activity in the tumor sections of 12 μm thickness was assessed. […] An equal volume of AF647-labeled c225 activatable antibodies prepared at 40 μg/mL in QZ buffer were then added directly onto the tissue containing the buffer to form a mixture and incubated at a final concentration of 20 μg/mL in a humidified chamber at 37° C. for 48 hours.
(§3) Following 48 hours of incubation, supernatants were collected from each incubated mixture and transferred into a well of a 96-well PCR plate for assay by capillary electrophoresis. Each supernatant sample was mixed with Pico Sample Buffer (Perkin Elmer) containing 2-beta-mercaptoethanol at four parts sample and one part of Pico Sample Buffer and then heated at 95° C. for 10 minutes. The composition of each supernatant sample was then assessed using the LabChip GXII Touch (Perkin Elmer) with the HT Pico Protein Express 100 protocol (Perkin Elmer). Protein Express Assay LabChips (Perkin Elmer #760499) were set up using the protocol of the Protein Pico Assay Reagent Kit (Perkin Elmer #760498).

[2] = tested on: TNBC tumor; assay: as above; design: species or system human (patient-derived); conditions: 20 μg/mL, 37° C, 48 hours
Protocol: as §1, §2, §3

[3] = tested on: head and neck tumor A; assay: as above; design: species or system human (patient-derived); conditions: 20 μg/mL, 37° C, 48 hours
Protocol: as §1, §2, §3

[4] = tested on: TMPRSS11; assay: In vitro cleavability of activatable antibodies by TMPRSS11 (capillary electrophoresis); format: biochemical, human; conditions: role: substrate; for Cleavability (%) TMPRSS11 (4 h): 500 nM activatable antibody, 10 nM TMPRSS11D, 37° C, pH 7.4; for extent of cleavage by TMPRSS11 vs control CM 2001, in words: 4 h, compared to control CM 2001
[5] = tested on: plasmin; assay: In vitro cleavability of activatable antibodies by plasmin (capillary electrophoresis); format: biochemical, human; design: key to Cleavability (%) Plasmin (4 h): “—” indicates below limit of quantification; conditions: role: substrate; for Cleavability (%) Plasmin (4 h): 500 nM activatable antibody, 10 nM plasmin, 37° C; for extent of cleavage by plasmin vs control CM 2001, in words: 4 h, compared to control CM 2001
[6] = tested on: MT-SP1; assay: Cleavability kinetics (kcat/KM) of CMs in activatable antibodies with MT-SP1; format: biochemical, human; conditions: role: substrate; compared to control CMs 2001 and 0001
[7] = In vivo stability of activatable antibodies in mice (cleaved activatable antibody in plasma); conditions: 10 mg/kg intraperitoneal; for In Vivo % Activation (nu/nu, day 7): day 7, plasma; for in vivo stability vs control, in words: nu/nu mice, day 7, compared to control CM 2001
[8] = tested on: MT-SP1; assay: In vitro cleavability of activatable antibodies by MT-SP1 (capillary electrophoresis); format: biochemical, human; conditions: role: substrate; for Cleavability (%) MT-SP1 (1.5h) / Cleavability (%) MT-SP1 (4 h): 500 nM activatable antibody, 37° C, pH 7.4; for Cleavability (%) MT-SP1 (1.5h): 10 nM MT-SP1, 1.5 h; for Cleavability (%) MT-SP1 (4 h): 10 nM MT-SP1, 4 h; for extent of cleavage by MT-SP1 (matriptase) vs control CM 2001, in words: compared to control CM 2001
[9] = tested on: human bone marrow aspirates; assay: In situ stability in human bone marrow aspirates; conditions: 20 μg/mL, 37° C, 21 or 24 hours, N=2 donors, normalized to CM 2001
Protocol: The study provided herein evaluates the in situ stability of activatable antibodies of the present disclosure with the CM 6006 (SEQ ID NO: 7) by human bone marrow aspirates. Fresh human bone marrow aspirates from healthy donors were purchased from Stemcell Technology Inc. (Catalog No. 70502) and AllCells Inc. and were processed to lyse red blood cells and washed 5 times with buffer or serum-free media. […] An equal volume of AF647-labeled c225 activatable antibodies prepared at 40 μg/mL in serum-free RPMI media were then added to form a mixture and incubated at a final concentration of 20 μg/mL at 37° C. for 21 or 24 hours. Cells were pelleted through centrifugation for 5 min at 300×g. Supernatants were collected from each incubated mixture and transferred into a well of a 96-well PCR plate for assay by capillary electrophoresis. Each supernatant sample was mixed with Pico Sample Buffer (Perkin Elmer) containing 2-beta-mercaptoethanol at four parts sample and one part of Pico Sample Buffer and then heated at 95° C. for 10 minutes. Substrate cleavage was measured by capillary electrophoresis using a LabChip® GXII Touch™ system (Perkin Elmer) with the HT Pico Protein Express 100 protocol (Perkin Elmer). Protein Express Assay LabChips (Perkin Elmer #760499) were set up using the protocol of the Protein Pico Assay Reagent Kit (Perkin Elmer #760498).

[10] = tested on: H292 (human lung cancer cell line) xenograft tumors; assay: Intra-tumoral activation assay in H292 xenograft tumors; format: in vivo, human tumor cells in female nu/nu mice; conditions: tumors collected 7 days after dosing, 9 mg/kg intraperitoneal
Protocol: (§4) In this study, H292 (human lung cancer-derived cell line) subcutaneous xenograft tumors in female nu/nu mice of 6-8 weeks of age were grown to an average volume of 117-215 mm^3. […] The mice were then randomized into groups of 8 mice each and each group was dosed intraperitoneally on day 1 with 9 mg/kg of the indicated test article.
Tumors were collected from the mice 7 days after dosing. The tumor tissue was lysed with immunoprecipitation buffer (Pierce) containing HALT protease inhibitor cocktail (Thermo Fisher) and EDTA and lysed using the Barocycler (Pressure Bioscience).

[11] = tested on: H292 (human lung cancer cell line) xenograft tumors; assay: In vivo efficacy in mouse H292 xenograft model; design: species or system human tumor cells in female nu/nu mice; conditions: 9 mg/kg intraperitoneal on day 1; nu/nu mice
Protocol: The study provided herein evaluates the in vivo efficacy of activatable antibodies of the present disclosure with CM 6006 (SEQ ID NO: 7) using a mouse H292 (human lung cancer cell line) xenograft model.
as §4

With “APRSALAHGLF [compound 5007, reference compound]” as the substance, how does the “light chain (LC) activation, in words” value [1] read?
Its value is “Comparable levels of LC activation”.

And the “light chain (LC) activation, in words” value [2]?
Its value is “Comparable levels of LC activation”.

And the “light chain (LC) activation, in words” value [3]?
The value was “Comparable levels of LC activation”.

With HQSRS [compound 6001] as the substance, how does the “Cleavability (%) TMPRSS11 (4 h)” value [4] read?
The value was 100.0%.

What about the “extent of cleavage by TMPRSS11 vs control CM 2001, in words” value [4] of the same substance?
The value was “to a greater extent than the control CM 2001”.

What about the “Cleavability (%) Plasmin (4 h)” value ([5]; pH 7.4) of the same substance?
Its value is 11.1%.

What about the “extent of cleavage by plasmin vs control CM 2001, in words” value [5] of the same substance?
Its value is “to a greater extent than the control CM 2001”.

And the “cleavability from kcat/KM results vs control CMs, in words” value [6]?
Its value is “higher cleavability by at least MT-SP1 than control CMs 2001 (SEQ ID NO: 78) and 0001 (SEQ ID NO: 77)”.

What about the “In Vivo % Activation (nu/nu, day 7)” value [7] of the same substance?
Its value is 24.2%.

And the “in vivo stability vs control, in words” value [7]?
The value was “higher in vivo stability than the activatable antibody with the control CM 2001”.

And the “Cleavability (%) MT-SP1 (1.5h)” value [8]?
The value was 56.9%.

And the “Cleavability (%) MT-SP1 (4 h)” value [8]?
Its value is 100.0%.

And the “extent of cleavage by MT-SP1 (matriptase) vs control CM 2001, in words” value [8]?
Its value is “substantially cleaved by MT-SP1; also recorded: to a greater extent than the control CM 2001”.

Which “Cleavability (%) TMPRSS11 (4 h)” value [4] does the source give for “ISSGLLSGRSDNH [compound 2001, reference compound]” here?
The value was 9.8%.

What about the “Cleavability (%) Plasmin (4 h)” value ([5]; below limit of quantification) of the same substance?
The value was “—”.

What about the “In Vivo % Activation (nu/nu, day 7)” value [7] of the same substance?
The value was 32.1%.

What about the “Cleavability (%) MT-SP1 (1.5h)” value [8] of the same substance?
The value was 10.9%.

And the “Cleavability (%) MT-SP1 (4 h)” value [8]?
Its value is 19.4%.

With “LSGRSDNH [compound 0001, reference compound]” as the substance, how does the “In Vivo % Activation (nu/nu, day 7)” value [7] read?
The value was 20%.

What does the source list for SDHQSRS [compound 6006]?
Cleavability (%) TMPRSS11 (4 h) [4]: 100.0%; extent of cleavage by TMPRSS11 vs control CM 2001, in words [4]: to a greater extent than the control CM 2001; resistance to cleavage in situ in bone marrow, in words [9]: resistance to cleavage in situ in the bone marrow as compared to activatable antibodies with control CMs 2001 (SEQ ID NO: 78), 5007 (APRSALAHGLE; SEQ ID NO: 80) (WO2020118109) and 3001; Cleavability (%) Plasmin (4 h) ([5]; pH 7.4): 15.1%; extent of cleavage by plasmin vs control CM 2001, in words [5]: to a greater extent than the control CM 2001; intra-tumoral activation, in words [10]: cleaved by proteases present in the tumor resulting in activation of the antibody; light chain (LC) activation, in words [1]: Comparable levels of LC activation; light chain (LC) activation, in words [2]: Increased LC activation is observed in the activatable antibody with CM 6006 (SEQ ID NO: 7) compared to the activatable antibody with the control CM 3001; also recorded: Comparable levels of LC activation; light chain (LC) activation, in words [3]: Increased LC activation is observed in the activatable antibody with CM 6006 (SEQ ID NO: 7) compared to the activatable antibody with the control CM 3001; also recorded: Comparable levels of LC activation; In Vivo % Activation (nu/nu, day 7) [7]: 18.4%; in vivo stability vs control, in words [7]: higher in vivo stability than the activatable antibody with the control CM 2001; in vivo efficacy (tumor volume), in words [11]: in vivo efficacy that is comparable with the activatable antibody with the control CM 2001 (SEQ ID NO: 78) and similar to cetuximab; Cleavability (%) MT-SP1 (1.5h) [8]: 33.1%; Cleavability (%) MT-SP1 (4 h) [8]: 74.1%; cleavability percentage for MT-SP1 ([8]; 1.5 h, lower bound stated in text): greater than 30%; extent of cleavage by MT-SP1 (matriptase) vs control CM 2001, in words [8]: substantially cleaved by MT-SP1; also recorded: to a greater extent than the control CM 2001
